In patent US20100099561A1, “HETEROBICYCLIC ALKYLTHIO-BRIDGED ISOXAZOLINES” (E.I. DU PONT DE NEMOURS AND COMPANY, priority 2008, published 2010):

Legend:
Format in all cases: in vivo
[1] = test system: velvetleaf (Abutilon theophrasti); assay: Test A postemergence, velvetleaf; settings: 0 to 100 scale (0 no effect, 100 complete control)
Description: (§1) Seeds of barnyardgrass (Echinochloa crus-galli), large crabgrass (Digitaria sanguinalis), giant foxtail (Setaria faberi), morningglory (Ipomoea spp.), pigweed (Amaranthus retroflexus), velvetleaf (Abutilon theophrasti), wheat (Triticum aestivum), and corn (Zea mays) were planted into a blend of loam soil and sand and treated preemergence with a directed soil spray using test chemicals formulated in a non-phytotoxic solvent mixture which included a surfactant. At the same time these species were also treated with postemergence applications of test compounds formulated in the same manner. Plants ranged in height from two to ten cm and were in the one- to two-leaf stage for the postemergence treatment. Treated plants and untreated controls were maintained in a greenhouse for approximately ten days, after which time all treated plants were compared to untreated controls and visually evaluated for injury. Plant response ratings, summarized in Table A, are based on a 0 to 100 scale where 0 is no effect and 100 is complete control. A dash (-) response means no test result.

[2] = test system: pigweed (Amaranthus retroflexus); assay: Test A postemergence, pigweed; settings: 0 to 100 scale (0 no effect, 100 complete control)
Description: as §1

[3] = test system: corn (Zea mays); assay: Test A preemergence, corn; settings: 0 to 100 scale (0 no effect, 100 complete control)
Description: as §1

[4] = test system: barnyardgrass (Echinochloa crus-galli); assay: Test A preemergence, barnyardgrass; settings: 0 to 100 scale (0 no effect, 100 complete control)
Description: as §1

[5] = test system: morningglory (Ipomoea spp.); assay: Test A preemergence, morningglory; settings: 0 to 100 scale (0 no effect, 100 complete control)
Description: as §1

[6] = test system: morningglory (Ipomoea spp.); assay: Test A postemergence, morningglory; settings: 0 to 100 scale (0 no effect, 100 complete control)
Description: as §1

[7] = test system: rice (Oryza sativa); assay: Test B flooded paddy test, rice; settings: Flood, scale 0 to 100
Description: (§2) Plant species in the flooded paddy test consisted of rice (Oryza sativa), umbrella sedge (Cyperus difformis), ducksalad (Heteranthera limosa) and barnyardgrass (Echinochloa crus-galli) grown to the 2-leaf stage for testing. At time of treatment, test pots were flooded to 3 cm above the soil surface, treated by application of test compounds directly to the paddy water, and then maintained at that water depth for the duration of the test. Treated plants and controls were maintained in a greenhouse for 13 to 15 days, after which time all species were compared to controls and visually evaluated. Plant response ratings, summarized in Table B, are based on a scale of 0 to 100 where 0 is no effect and 100 is complete control. A dash (-) response means no test result.

[8] = test system: wheat (Triticum aestivum); assay: Test A preemergence, wheat; settings: 0 to 100 scale (0 no effect, 100 complete control)
Description: as §1

[9] = test system: corn (Zea mays); assay: Test A postemergence, corn; settings: 0 to 100 scale (0 no effect, 100 complete control)
Description: as §1

[10] = test system: velvetleaf (Abutilon theophrasti); assay: Test A preemergence, velvetleaf; settings: 0 to 100 scale (0 no effect, 100 complete control)
Description: as §1

[11] = test system: barnyardgrass (Echinochloa crus-galli); assay: Test A postemergence, barnyardgrass; settings: 0 to 100 scale (0 no effect, 100 complete control)
Description: as §1

[12] = test system: umbrella sedge (Cyperus difformis); assay: Test B flooded paddy test, umbrella sedge; settings: Flood, scale 0 to 100
Description: as §2

[13] = test system: ducksalad (Heteranthera limosa); assay: Test B flooded paddy test, ducksalad; settings: Flood, scale 0 to 100
Description: as §2

[14] = test system: pigweed (Amaranthus retroflexus); assay: Test A preemergence, pigweed; settings: 0 to 100 scale (0 no effect, 100 complete control)
Description: as §1

[15] = test system: large crabgrass (Digitaria sanguinalis); assay: Test A preemergence, large crabgrass; settings: 0 to 100 scale (0 no effect, 100 complete control)
Description: as §1

[16] = test system: giant foxtail (Setaria faberi); assay: Test A preemergence, giant foxtail; settings: 0 to 100 scale (0 no effect, 100 complete control)
Description: as §1

[17] = test system: large crabgrass (Digitaria sanguinalis); assay: Test A postemergence, large crabgrass; settings: 0 to 100 scale (0 no effect, 100 complete control)
Description: as §1

[18] = test system: wheat (Triticum aestivum); assay: Test A postemergence, wheat; settings: 0 to 100 scale (0 no effect, 100 complete control)
Description: as §1

[19] = test system: barnyardgrass (Echinochloa crus-galli); assay: Test B flooded paddy test, barnyardgrass; settings: Flood
Description: as §2

[20] = test system: giant foxtail (Setaria faberi); assay: Test A postemergence, giant foxtail; settings: 0 to 100 scale (0 no effect, 100 complete control)
Description: as §1

[21] = 250 g ai/ha, scale 0 to 100 (0 no effect, 100 complete control)

CC1(C)CC([S+]([O-])Cc2c(C(F)(F)F)nc3n(c2=O)CCC3)=NO1 (stereo not drawn) [Compound 10, 3-[[(4,5-dihydro-5,5-dimethyl-3-isoxazolyl)sulfinyl]methyl]-7,8-dihydro-2-(trifluoromethyl)pyrrolo[1,2-α]pyrimidin-4(6H)-one]
10: Plant response rating, Velvetleaf ([1]; 125 g ai/ha) | Plant response rating, Pigweed ([2]; 125 g ai/ha) | Plant response rating, Corn ([3]; 500 g ai/ha) | Plant response rating, Morningglory ([6]; 125 g ai/ha)
70: Plant response rating, Barnyardgrass ([4]; 500 g ai/ha) | Plant response rating, Crabgrass, Large ([17]; 500 g ai/ha) | Plant response rating, Foxtail, Giant ([20]; 500 g ai/ha)
40: Plant response rating, Velvetleaf ([1]; 500 g ai/ha) | Plant response rating, Crabgrass, Large ([17]; 125 g ai/ha)
0: Plant response rating, Corn ([3]; 125 g ai/ha) | Plant response rating, Barnyardgrass ([4]; 125 g ai/ha) | Plant response rating, Morningglory ([5]; 125 g ai/ha) | Plant response rating, Morningglory ([5]; 500 g ai/ha) | Plant response rating, Rice ([7]; 31 g ai/ha) | Plant response rating, Rice ([7]; 62 g ai/ha) | Plant response rating, Rice ([7]; 125 g ai/ha) | Plant response rating, Rice ([7]; 250 g ai/ha) | Plant response rating, Wheat ([8]; 125 g ai/ha) | Plant response rating, Corn ([9]; 125 g ai/ha) | Plant response rating, Velvetleaf ([10]; 125 g ai/ha) | Plant response rating, Velvetleaf ([10]; 500 g ai/ha) | Plant response rating, Sedge, Umbrella ([12]; 31 g ai/ha) | Plant response rating, Sedge, Umbrella ([12]; 62 g ai/ha) | Plant response rating, Sedge, Umbrella ([12]; 125 g ai/ha) | Plant response rating, Sedge, Umbrella ([12]; 250 g ai/ha) | Plant response rating, Ducksalad ([13]; 31 g ai/ha) | Plant response rating, Ducksalad ([13]; 62 g ai/ha) | Plant response rating, Ducksalad ([13]; 125 g ai/ha) | Plant response rating, Ducksalad ([13]; 250 g ai/ha) | Plant response rating, Pigweed ([14]; 125 g ai/ha) | Plant response rating, Pigweed ([14]; 500 g ai/ha) | Plant response rating, Crabgrass, Large ([15]; 125 g ai/ha) | Plant response rating, Wheat ([18]; 125 g ai/ha) | Plant response rating, Barnyardgrass ([19]; 31 g ai/ha, scale 0 to 100) | Plant response rating, Barnyardgrass ([19]; 62 g ai/ha, scale 0 to 100) | Plant response rating, Barnyardgrass ([19]; 125 g ai/ha, scale 0 to 100) | Plant response rating, Barnyardgrass [19, 21]
20: Plant response rating, Morningglory ([6]; 500 g ai/ha) | Plant response rating, Corn ([9]; 500 g ai/ha) | Plant response rating, Foxtail, Giant ([16]; 125 g ai/ha) | Plant response rating, Wheat ([18]; 500 g ai/ha)
30: Plant response rating, Pigweed ([2]; 500 g ai/ha) | Plant response rating, Wheat ([8]; 500 g ai/ha) | Plant response rating, Barnyardgrass ([11]; 125 g ai/ha) | Plant response rating, Foxtail, Giant ([20]; 125 g ai/ha)
80: Plant response rating, Barnyardgrass ([11]; 500 g ai/ha) | Plant response rating, Crabgrass, Large ([15]; 500 g ai/ha) | Plant response rating, Foxtail, Giant ([16]; 500 g ai/ha)

CCn1c(=O)c(C[S+]([O-])C2=NOC(C)(C)C2)nc2ccccc21 (centres unmarked) [Compound 29]
10: Plant response rating, Barnyardgrass ([11]; 125 g ai/ha)
20: Plant response rating, Barnyardgrass ([11]; 500 g ai/ha) | Plant response rating, Ducksalad ([13]; 250 g ai/ha)
0: Plant response rating, Velvetleaf ([1]; 125 g ai/ha) | Plant response rating, Velvetleaf ([1]; 500 g ai/ha) | Plant response rating, Pigweed ([2]; 125 g ai/ha) | Plant response rating, Pigweed ([2]; 500 g ai/ha) | Plant response rating, Corn ([3]; 125 g ai/ha) | Plant response rating, Barnyardgrass ([4]; 125 g ai/ha) | Plant response rating, Barnyardgrass ([4]; 500 g ai/ha) | Plant response rating, Morningglory ([5]; 125 g ai/ha) | Plant response rating, Morningglory ([5]; 500 g ai/ha) | Plant response rating, Morningglory ([6]; 125 g ai/ha) | Plant response rating, Morningglory ([6]; 500 g ai/ha) | Plant response rating, Rice ([7]; 31 g ai/ha) | Plant response rating, Rice ([7]; 62 g ai/ha) | Plant response rating, Rice ([7]; 125 g ai/ha) | Plant response rating, Rice ([7]; 250 g ai/ha) | Plant response rating, Wheat ([8]; 125 g ai/ha) | Plant response rating, Wheat ([8]; 500 g ai/ha) | Plant response rating, Corn ([9]; 125 g ai/ha) | Plant response rating, Corn ([9]; 500 g ai/ha) | Plant response rating, Velvetleaf ([10]; 125 g ai/ha) | Plant response rating, Velvetleaf ([10]; 500 g ai/ha) | Plant response rating, Sedge, Umbrella ([12]; 31 g ai/ha) | Plant response rating, Sedge, Umbrella ([12]; 62 g ai/ha) | Plant response rating, Sedge, Umbrella ([12]; 125 g ai/ha) | Plant response rating, Sedge, Umbrella ([12]; 250 g ai/ha) | Plant response rating, Ducksalad ([13]; 31 g ai/ha) | Plant response rating, Ducksalad ([13]; 62 g ai/ha) | Plant response rating, Ducksalad ([13]; 125 g ai/ha) | Plant response rating, Pigweed ([14]; 125 g ai/ha) | Plant response rating, Pigweed ([14]; 500 g ai/ha) | Plant response rating, Crabgrass, Large ([15]; 125 g ai/ha) | Plant response rating, Crabgrass, Large ([15]; 500 g ai/ha) | Plant response rating, Foxtail, Giant ([16]; 125 g ai/ha) | Plant response rating, Foxtail, Giant ([16]; 500 g ai/ha) | Plant response rating, Crabgrass, Large ([17]; 125 g ai/ha) | Plant response rating, Crabgrass, Large ([17]; 500 g ai/ha) | Plant response rating, Wheat ([18]; 125 g ai/ha) | Plant response rating, Wheat ([18]; 500 g ai/ha) | Plant response rating, Barnyardgrass ([19]; 31 g ai/ha, scale 0 to 100) | Plant response rating, Barnyardgrass ([19]; 62 g ai/ha, scale 0 to 100) | Plant response rating, Barnyardgrass ([19]; 125 g ai/ha, scale 0 to 100) | Plant response rating, Barnyardgrass [19, 21] | Plant response rating, Foxtail, Giant ([20]; 125 g ai/ha) | Plant response rating, Foxtail, Giant ([20]; 500 g ai/ha)
